The source of these data is patent US20230024108A1, “ADENOSINE A2A RECEPTOR ANTAGONISTS” (Teon Therapeutics, Inc., priority 2019, published 2023).

The target of test [1] is T1, human A2A AdoR (Homo sapiens, UniProt P29274).
T1 construct: purchased PerkinElmer RBHA2AM400UA
Description: Adenosine receptor binding assay, A2A ([3H]-CGS-21680). As to conditions: membranes of HEK-293 cells expressing human A2A AdoR; read-out: hA2A IC50. As for the experimental part:
(§1) Membranes prepared from CHO-K1 cells stably expressing Human AiAdoR (ES-010-M400UA), HEK-293 cells stably expressing human A2A AdoR (RBHA2AM400UA), HEK-293 cells stably expressing human A2B AdoR (ES-013-M400UA) and CHO-K1 cells stably expressing Human A3 AdoR (ES-012-M400UA) were purchased from PerkinElmer (Waltham, Mass., USA) and stored at −80° C. until use. Binding assays are performed using the radioligands. The final concentrations are as follows: [3H]-DPCPX (PerkinElmer, NET974001MC) at 1 nM for A1AdoR; [^3H]-CGS-21680 (PerkinElmer, NET1021250UC) at 6 nM for A2AAdoR, [3H]-DPCPX (PerkinElmer, NET974001MC) at 8 nM for A2BAdoR; [^3H]-HEMADO (ARC, Cat: ART1456) at 1 nM for A3AdoR. Testing compounds are diluted with DMSO to make 8-point 4-fold serial dilution. Nonspecific binding (Low control: LC) and total binding (High control: HC) are determined in the presence or absence of saturated cold ligand. Specific binding is calculated by subtracting nonspecific binding from total binding. All assays are performed in a final volume of 200 μl containing 1 μl of the test compound in DMSO, 100 μl of membrane preparation, and 99 μl of the radioligand in assay buffer (A1AdoR: 25 mM HEPES pH 7.4, 5 mM MgCl2, 1 mM CaCl2), 100 mM NaCl; A2AAdoR: 50 mM Tris HCl pH 7.4, 10 mM MgCl2, 1 mM EDTA; A2BAdoR: 50 mM HEPES pH 7.0, 5 mM MgCl2, 1 mM EDTA; A3AdoR: 25 HEPES pH 7.4, 10 mM MgCl2, 1 mM CaCl2), 0.5% BSA). The incubation is performed at room temperature with shaking at 300 rpm for 1 hour for A1AdoR, A2BAdoR and A3AdoR and 2 hours for A2AAdoR. After the incubation, the assay mixture is filtered through 96 GF/C filter plates (Perkin Elmer #6005174) using Perkin Elmer Filtermate Harvester, and then washed four times with ice-cold washing buffer (A1AdoR: 25 mM HEPES pH 7.4, 5 mM MgCl2, 1 mM CaCl2), 100 mM NaCl; A2AAdoR: 50 mM Tris HCl pH 7.4, 154 mM NaCl; A2BAdoR: 50 mM HEPES pH 6.5, 5 mM MgCl2, 1 mM EDTA, 0.2% BSA; A3AdoR: 50 mM Tris HCl pH 7.4). The filters are dried for 1 hour at 50° C. and [^3H] trapped on filter counted for radioactivity in Perkin Elmer Microscint 20 cocktail (#6013329) using Perkin Elmer MicroBeta2 Reader. The results are expressed as a percent inhibition of the control radioligand specific binding calculated using the following equation: % Inhibition=(1−(Assay well-Average_LC)/(Average_HC−Average_LC))×100%. Data are analyzed and IC50 is calculated using GraphPad Prism 5 and the model “log(inhibitor) vs. response—Variable slope”. The binding affinity of the compounds is determined by using the Cheng and Prusoff equation Ki=IC50/(1+[radioligand]/Kd).

Test [2] addresses T2, A1AdoR (Homo sapiens, UniProt P30542).
T2 construct: purchased PerkinElmer ES-010-M400UA
T2 sequence (P30542 1-326): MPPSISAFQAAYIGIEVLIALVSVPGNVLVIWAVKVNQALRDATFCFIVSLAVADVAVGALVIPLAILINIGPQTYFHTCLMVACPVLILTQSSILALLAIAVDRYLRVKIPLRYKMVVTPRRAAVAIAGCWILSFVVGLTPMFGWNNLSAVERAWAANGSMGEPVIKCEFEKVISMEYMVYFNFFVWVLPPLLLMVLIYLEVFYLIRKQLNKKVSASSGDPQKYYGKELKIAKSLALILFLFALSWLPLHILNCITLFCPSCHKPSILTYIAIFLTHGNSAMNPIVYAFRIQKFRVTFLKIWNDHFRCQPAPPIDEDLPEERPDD
Description: Adenosine receptor binding assay, A1 ([3H]-DPCPX). As to conditions: ratio A1 vs A2A binding. As for the experimental part: as §1

T1 sequence (P29274 whole entry): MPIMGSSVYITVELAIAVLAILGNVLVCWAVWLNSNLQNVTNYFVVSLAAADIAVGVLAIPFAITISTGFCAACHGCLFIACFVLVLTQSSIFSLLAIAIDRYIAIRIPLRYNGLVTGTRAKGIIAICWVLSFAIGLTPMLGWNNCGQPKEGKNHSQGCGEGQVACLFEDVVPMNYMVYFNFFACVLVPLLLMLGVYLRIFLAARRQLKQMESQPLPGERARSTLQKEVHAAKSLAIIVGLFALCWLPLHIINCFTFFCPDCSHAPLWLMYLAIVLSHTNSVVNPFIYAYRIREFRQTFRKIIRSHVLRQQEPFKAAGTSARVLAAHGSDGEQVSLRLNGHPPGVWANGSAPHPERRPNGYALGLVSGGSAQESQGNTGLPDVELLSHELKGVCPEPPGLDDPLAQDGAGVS

Take `CNC(=O)c1c(C)c2c(nc(N)n3nc(-c4ccccn4)nc23)n1CCN1CCCN(c2cc(-c3ncco3)ccc2F)CC1` [5-amino-7-(2-(4-(2-fluoro-5-(oxazol-2-yl)phenyl)-1,4-diazepan-1-yl)ethyl)-N,9-dimethyl-2-(pyridin-2-yl)-7H-pyrrolo[3,2-e][1,2,4]triazolo[1,5-c]pyrimidine-8-carboxamide]: the IC50 in test [1] is not above 20 nM. Besides, the “A1/A2A Selectivity” value in test [2] is “b (greater than 100 but less than or equal to 1000)”.
For `Cc1c(C(N)=O)n(CCN2CCN(c3ccc(C#N)cc3F)CC2)c2nc(N)n3nc(-c4ccccn4)nc3c12` [5-amino-7-(2-(4-(4-cyano-2-fluorophenyl)piperazin-1-yl)ethyl)-9-methyl-2-(pyridin-2-yl)-7H-pyrrolo[3,2-e][1,2,4]triazolo[1,5-c]pyrimidine-8-carboxamide] the same measures were not above 20 nM and “b (greater than 100 but less than or equal to 1000)”.
On to `Cc1c(C(=O)O)n(CCN2CCN(c3ccc(C#N)cc3F)CC2)c2nc(N)n3nc(-c4ccccn4)nc3c12` [5-amino-7-(2-(4-(4-cyano-2-fluorophenyl)piperazin-1-yl)ethyl)-9-methyl-2-(pyridin-2-yl)-7H-pyrrolo[3,2-e][1,2,4]triazolo[1,5-c]pyrimidine-8-carboxylic acid], for which the half-maximal inhibitory concentration (IC50) in test [1] was not above 20 nM. In test [2], the “A1/A2A Selectivity” value was “b (greater than 100 but less than or equal to 1000)”.
For `Cc1cc(N2CCN(CCn3c(C(N)=O)c(C)c4c3nc(N)n3nc(-c5ccccn5)nc43)CC2)c(F)cn1` [5-amino-7-(2-(4-(5-fluoro-2-methylpyridin-4-yl)piperazin-1-yl)ethyl)-9-methyl-2-(pyridin-2-yl)-7H-pyrrolo[3,2-e][1,2,4]triazolo[1,5-c]pyrimidine-8-carboxamide], in that order: not above 20 nM and “c (greater than 0 but less than or equal to 100)”.
`Cc1noc2cc(F)c(N3CCN(CCn4c(C(N)=O)c(C)c5c4nc(N)n4nc(-c6ccccn6)nc54)CC3)cc12` [5-amino-7-(2-(4-(6-fluoro-3-methylbenzo[d]isoxazol-5-yl)piperazin-1-yl)ethyl)-9-methyl-2-(pyridin-2-yl)-7H-pyrrolo[3,2-e][1,2,4]triazolo[1,5-c]pyrimidine-8-carboxamide]: the IC50 in test [1] was not above 20 nM. In addition, the “A1/A2A Selectivity” value in test [2] is reported as “a (greater than 1000)”.
For `NC(=O)c1c(Cl)c2c(nc(N)n3nc(-c4ccccn4)nc23)n1CCN1CCN(c2ccncc2)CC1` [5-amino-9-chloro-2-(pyridin-2-yl)-7-(2-(4-(pyridin-4-yl)piperazin-1-yl)ethyl)-7H-pyrrolo[3,2-e][1,2,4]triazolo[1,5-c]pyrimidine-8-carboxamide] the same measures were not above 20 nM and “c (greater than 0 but less than or equal to 100)”.
For `Nc1nc2c(c(Cl)c(C(=O)O)n2CCN2CCN(c3ccncc3)CC2)c2nc(-c3ccccn3)nn12` [5-amino-9-chloro-2-(pyridin-2-yl)-7-(2-(4-(pyridin-4-yl)piperazin-1-yl)ethyl)-7H-pyrrolo[3,2-e][1,2,4]triazolo[1,5-c]pyrimidine-8-carboxylic acid] the same measures were 20 to 100 nM and “b (greater than 100 but less than or equal to 1000)”.
On to `NC(=O)c1c(Cl)c2c(nc(N)n3nc(-c4ccccn4)nc23)n1CCN1CCN(c2ncccn2)CC1` [5-amino-9-chloro-2-(pyridin-2-yl)-7-(2-(4-(pyrimidin-2-yl)piperazin-1-yl)ethyl)-7H-pyrrolo[3,2-e][1,2,4]triazolo[1,5-c]pyrimidine-8-carboxamide], for which the IC50 in test [1] is not above 20 nM. The “A1/A2A Selectivity” value in test [2] is recorded as “c (greater than 0 but less than or equal to 100)”.
As to `Nc1nc2c(c(Cl)c(C(=O)O)n2CCN2CCN(c3ncccn3)CC2)c2nc(-c3ccccn3)nn12` [5-amino-9-chloro-2-(pyridin-2-yl)-7-(2-(4-(pyrimidin-2-yl)piperazin-1-yl)ethyl)-7H-pyrrolo[3,2-e][1,2,4]triazolo[1,5-c]pyrimidine-8-carboxylic acid], in test [1], the IC50 was 20 to 100 nM. The “A1/A2A Selectivity” value in test [2] is reported as “c (greater than 0 but less than or equal to 100)”.
For `Cc1cnc2c(c1)CN(CCn1c(C(N)=O)c(Cl)c3c1nc(N)n1nc(-c4ccccn4)nc31)CC2` [5-amino-9-chloro-7-(2-(3-methyl-7,8-dihydro-1,6-naphthyridin-6(5H)-yl)ethyl)-2-(pyridin-2-yl)-7H-pyrrolo[3,2-e][1,2,4]triazolo[1,5-c]pyrimidine-8-carboxamide] the same measures were not above 20 nM and “c (greater than 0 but less than or equal to 100)”.
For `Nc1nc2c(c(Cl)c(C(=O)O)n2CCN2CCN(c3ccc(F)cc3F)CC2)c2nc(-c3ccccn3)nn12` [5-amino-9-chloro-7-(2-(4-(2,4-difluorophenyl)piperazin-1-yl)ethyl)-2-(pyridin-2-yl)-7H-pyrrolo[3,2-e][1,2,4]triazolo[1,5-c]pyrimidine-8-carboxylic acid] the same measures were not above 20 nM and “b (greater than 100 but less than or equal to 1000)”.
With `NC(=O)c1c(Cl)c2c(nc(N)n3nc(-c4ccccn4)nc23)n1CCN1CCN(c2cc(-c3ncco3)ccc2F)CC1` [5-amino-9-chloro-7-(2-(4-(2-fluoro-5-(oxazol-2-yl)phenyl)piperazin-1-yl)ethyl)-2-(pyridin-2-yl)-7H-pyrrolo[3,2-e][1,2,4]triazolo[1,5-c]pyrimidine-8-carboxamide], the IC50 in test [1] was not above 20 nM. Also, the “A1/A2A Selectivity” value in test [2] is reported as “a (greater than 1000)”.
For `Nc1nc2c(c(Cl)c(C(=O)O)n2CCN2CCN(c3cc(-c4ncco4)ccc3F)CC2)c2nc(-c3ccccn3)nn12` [5-amino-9-chloro-7-(2-(4-(2-fluoro-5-(oxazol-2-yl)phenyl)piperazin-1-yl)ethyl)-2-(pyridin-2-yl)-7H-pyrrolo[3,2-e][1,2,4]triazolo[1,5-c]pyrimidine-8-carboxylic acid], in that order: not above 20 nM and “b (greater than 100 but less than or equal to 1000)”.
For `N#Cc1ccc(N2CCN(CCn3c(C(N)=O)c(Cl)c4c3nc(N)n3nc(-c5ccccn5)nc43)CC2)c(F)c1` [5-amino-9-chloro-7-(2-(4-(4-cyano-2-fluorophenyl)piperazin-1-yl)ethyl)-2-(pyridin-2-yl)-7H-pyrrolo[3,2-e][1,2,4]triazolo[1,5-c]pyrimidine-8-carboxamide] the same measures were not above 20 nM and “a (greater than 1000)”.
For `N#Cc1ccc(N2CCN(CCn3c(C(=O)O)c(Cl)c4c3nc(N)n3nc(-c5ccccn5)nc43)CC2)c(F)c1` [5-amino-9-chloro-7-(2-(4-(4-cyano-2-fluorophenyl)piperazin-1-yl)ethyl)-2-(pyridin-2-yl)-7H-pyrrolo[3,2-e][1,2,4]triazolo[1,5-c]pyrimidine-8-carboxylic acid], in that order: not above 20 nM and “b (greater than 100 but less than or equal to 1000)”.

Usually IC50 stands for the concentration that inhibits the measured activity by half.
